Measured values: US12410174B1, “Small molecular inhibitors of sting signaling compositions and methods of use” (TYERELL IMMUNOTHERAPEUTICS INC, priority 2020, dated 2025)
“Also recorded” adds a separate entry of the source.

Assays:
STING signaling [1] = experiment: Western blot of STING, pTBK1 and pIRF3 in hTERT cells after ISD transfection; assay type: cell-based, human; conditions: 6 hours after ISD transfection
Method: (§1) Example 8: Immunoblot analysis: Equal amounts of proteins were resolved on sodium dodecyl sulfate (SDS)-Polyacrylamide gels and then transferred to polyvinylidene fluoride (PVDF) membranes (Millipore). After blocking with 5% Blocking Reagent, membranes were incubated with various primary antibodies (and appropriate secondary antibodies). The image was resolved using an enhanced chemiluminescence system ECL (Thermo Scientific) and detected by autoradiography (Kodak). Antibodies: rabbit polyclonal antibody against STING was developed in our laboratory as described previously in Ishikawa et al, 2008; other antibodies were obtained from following sources: β-actin (Sigma Aldrich), p-IRF3 (Cell Signaling), IRF3 (Santa Cruz Biotechnology), p-p65 (Cell Signaling), p65 (Cell Signaling), p-TBK1 (Cell Signaling), TBK1 (Abcam), cGAS (Cell Signaling).

STING signaling [2] = experiment: Western blot of STING, TBK1 and IRF3 phosphorylation in MEF cells; assay type: cell-based, murine; conditions: cytosolic DNA
Method: as §1

STING signaling [3] = experiment: qPCR of IFNβ1 / Cxcl10 in normal hTERT cells after ISD transfection; assay type: cell-based, human
Method: (§2) Example 11: qPCR total RNA were reverse-transcribed using M-MLV Reverse Transcriptase (Promega). Real-time PCR was performed using Taqman Gene Expression Assay (Applied Biosystems) for innate immune genes and inflammatory cytokines.

STING signaling [4] = experiment: Luciferase live cell assay, type I IFN promoter in hTERT-pIFNβ-Glu cells after ISD transfection; assay type: cell-based, human; conditions: hTERT-pIFNβ-Glu cells
Method: Inhibition of IFNβ expression was measured by Luciferase induction at 24 hours after transfection of ISD, Mock is shown (210), ISD treatment only (220) was used as a control, according to an embodiment of the invention;
Example 1: Identification of small molecule antagonists of STING. In the presence of cytosolic DNA species, STING becomes activated to drive the transcription of cytokines such as type I IFN. Compounds binding to STING via TSA were subsequently examined for their ability to prevent cytosolic DNA species from activating the type I interferon (IFN) promoter, using a live cell assay. This assay comprised immortalized human fibroblasts that were stably transfected with the type I IFN promoter driving luciferase as well as the CMV promoter driving SEAP (hTERT-pIFNβ-Glu). The live cell assay has previously been disclosed in PCT/JS2019/025380 entitled IFN-βETA REPORTER SYSTEM FOR IMMORTALIZED PRIMARY CELLS inventor Glen N. Barber, which was filed Apr. 2, 2018 and published as WO2019195285, and which is herein incorporated by reference in its entirety and for all purposes. The ability of the small molecules to prevent activation of the type I IFN promoter and the transcription of luciferase, but not SEAP in response to cytosolic DNA species was assessed. The activation of STING, typically by CDNs, in turn activates the transcription factors NF-κB and IRF3, both of which are required to induce the transcriptional stimulation of the Type I IFN promoter, but not the CMV promoter as IRF3 and NF-kB transcription factor binding sites are not contained in the CMV promoter. The assay identified the small molecule Compound Y1 in the first screen (HTS), where the level of luciferase was not able to activate the type I IFN promoter or induce the expression of luciferase (see Table I).
Example 4: hTERT-BJ1 Telomerase Fibroblasts (hTERT) were originally purchased from Clontech and were cultured in 4:1 ratio of DMEM:Medium 199 supplement with 10% FBS, 4 mM L-Glutamine and 1 mM sodium pyruvate at 37° C. in a 5% CO2-humidified atmosphere. hTERT-BJ1 Telomerase Fibroblasts stably expressing the luciferase gene under the control of the interferon-beta promoter and SEAP gene under control of the CMV promoter) (hTERT-pIFNβ-Glu) were generated by the Barber laboratory.
Example 7: Luciferase assay: hTERT-BJ1 Telomerase Fibroblasts stably expressing the luciferase gene under the control of the interferon-beta promoter and SEAP gene under control of the CMV promoter) (hTERT-pIFNβ-Glu) were generated by the Barber laboratory. Luciferase assay was performed using Secrete-Pair Dual Luminescence Assay Kit from GeneCopoeia following the manufacturer's protocol.

STING signaling [5] = experiment: IFNβ ELISA in MEF cells after ISD treatment; assay type: cell-based, murine
Method: (§3) Example 9: Interferon β Elisa analysis: Interferon β Elisa was performed using either the IFNβ human ELISA Kit from Invitrogen or the Human IFNβ ELISA Kit from PBL Interferon Source following the manufacturer's protocol.

STING signaling [6] = experiment: Confocal analysis of STING trafficking and IRF3 translocation in hTERT cells; assay type: cell-based, human; conditions: 6 hours after ISD transfection
Method: FIG. 2E are photographs showing confocal analysis of STING trafficking using anti-Sting performed at 6 hours after ISD transfection with Y1+220/without 220, Mock is shown (210), ISD treatment only (220) was used as control, treatment same as in FIG. 2A, according to an embodiment of the invention;
Example 10: Immunofluorescence Microscopy: Cells were cultured and treated in their appropriate media on Lab-Tek II chamber slides. Cell were fixed with 4% paraformaldehyde for 15 minutes in at 37° C. and permeabilized with 0.05% Triton X-100 for 5 minutes at room temperature. Immunostaining was performed with rabbit-anti-STING polyclonal, rabbit-anti-IRF3 (Santa Cruz Biotechnology) or rabbit-anti-p65 (Cell Signaling) followed by fluorescence conjugated secondary antibodies (FITC-goat-anti-rabbit) (Invitrogen).

STING signaling [7] = experiment: IFNβ ELISA in normal hTERT cells after ISD transfection; assay type: cell-based, human
Method: as §3

STING signaling [8] = experiment: qPCR of Cxcl10 / Cxcl5 in MEF cells after ISD transfection; assay type: cell-based, murine
Method: MEFs were obtained from E13.5 embryos by a standard procedure. Bone Marrow Derived Macro-phages (BMDM) were isolated from hind-limb femurs of 8-10 weeks old WT and Trex1 KO (TKO) mice. The hematopoietic cells from the bone marrow were cultured in complete DMEM (Invitrogen) including 10 ng/ml of Mouse Recombinant Colony-Stimulating Factor (M-CSF, R&D Systems) for 10 to 14 days.
as §2

TREX1-deficient mice = experiment: Treatment of TREX1 knockout (TKO) mice: survival and heart histopathology; assay type: in vivo, mouse
Method: Example 12: Mouse Treatment: Trex1 Hetero knockout mice (Trex1^+/−) were generated by crossing the hetero mice. Mouse genotypes from tail biopsies were determined using Real Time PCR with specific probes designed for each gene by commercial vendor (Transnetyx). Trex1 KO (TKO) mice (4-5 weeks old) were intraperitoneally injected with 25 μg Z811 per mouse in 200 μL 1% DMSO in PBS. The mice were injected three times a week for 5 months. The survival rates were evaluated.
Example 13: Histopathology. Mice are sacrificed and the heart tissues were fixed in 10% formalin for 48 hours.

## N#Cc1c(NC(=O)c2ccccc2Cl)n(Cc2ccccc2)c2nc3ccccc3nc12 [Compound Y1, N-{1-benzyl-3-cyano-1H-pyrrolo[2,3-ß]quinoxalin-2-yl}-2-chlorobenzamide]
STING signaling [1]
  STING, TBK1 and IRF3 phosphorylation (Western blot): robustly prevented STING phosphorylation and subsequently TBK1 and IRF3 phosphorylation; also recorded: able to prevent the phosphorylation of STING, TBK1 and IRF3
STING signaling [2]
  phosphorylation of TBK1, IRF3 and STING (Western blot): prevented the phosphorylation of either TBK1 or IRF3
STING signaling [3]; normal hTERT cells stimulated with ISD, 50 μM, 25 μM or 5 μM
  production of STING-inducible cytokine Cxcl10 (qPCR): robustly inhibited
STING signaling [3]; normal hTERT cells, 6 hours after ISD transfection
  IFNβ expression (qPCR of IFNβ1): dramatically decreased IFNβ expression and production
STING signaling [4]; 10 μM and 50 μM, ISD 3 μg/ml, 24 hours after transfection
  inhibition of activation of the type I IFN promoter (luciferase induction): inhibited activation of the type I IFN promoter; also recorded: exhibited inhibition of the activation of the type I IFN promoter
STING signaling [4]; 50 μM or 25 μM, in response to ISD
  inhibitory activity of the type I IFN promoter (luciferase induction): showed robust inhibitory activity of the type I IFN promoter
STING signaling [5]
  IFNβ production (ELISA): reproducibly decreased the production of IFNβ; also recorded: dramatically decreased
STING signaling [6]
  IRF3 translocation (confocal analysis): able to prevent
  STING trafficking (confocal analysis): effectively preventing STING trafficking; also recorded: able to prevent
STING signaling [7]
  IFNβ production (ELISA): dramatically decreased IFNβ expression and production
STING signaling [8]
  Cxcl10 production in response to ISD (qPCR): dramatically decreased
STING signaling [8]; 50 μM
  Cxcl5 production in response to ISD (qPCR): dramatically decreased
TREX1-deficient mice
  inflammation in the heart (H&E staining): Less inflammation in the heart
TREX1-deficient mice; intraperitoneal, 25 μg/mouse, 5 months, compared to mock treated
  survival of TREX1-deficient mice: survival was significantly improved over several months; also recorded: extended the life of TREX1-deficient mice
